Source: patent publication US10675303B2, “Extracellular matrix compositions for the treatment of cancer” (ADAPTIVE BIOLOGIX, INC., priority 2008, dated 2020)

Assays:
MDA435 cells = assay: Tumor growth of MDA435 cells in nude mice; format: in vivo
Procedure: (§1) Tumor growth of B16 cells, C6 cells, or MDA435 cells in the presence or absence of ECM, and with or without cisplatin, were examined in nude mice. Cells, ECM and Cisplatin were injected simultaneously subcutaneously in the lower haunch of a nude mouse. Tumor growth was followed over time using photography, measurements of length and width, then finally by weight. FIGS. 8 and 9 show the growth of tumors from C6 cells in nude mice in the presence (FIG. 9) and absence (FIG. 8) of ECM on day 14 post-injection. FIGS. 10 and 11 show the growth of tumors from C6 cells in nude mice in the presence of ECM with cisplatin (FIG. 10) and cisplatin without ECM (FIG. 11) of ECM on day 14 post-injection.

C6 cells = assay: Tumor growth of C6 cells in nude mice; format: in vivo; conditions: compared to no treatment control (FIG. 12)
Procedure: as §1

**Q.** How did the “tumor growth of MDA435 cells over 25 days” value (MDA435 cells; nude mice, compared to no treatment control (FIG. 14)) turn out when N.N.[Cl][Pt][Cl] [cisplatin] was run?
**A.** The value was “reduction in tumor mass to zero”.

**Q.** What about the “tumor growth of MDA435 cells in nude mice” value (MDA435 cells; versus no treatment control with palpable tumors (FIGS. 13A-D)) of the same compound?
**A.** Its value is “reduced or no tumor growth”.

**Q.** And the “tumor growth of C6 cells over 18 days” value (C6 cells)?
**A.** The value was “no growth”.
